Measured values: US7956069B2, “Compounds” (AstraZeneca AB, priority 2006, dated 2011)

How the values were obtained:
[1] = target: T1, hM5 (human Muscarinic receptor subtype 5) (Homo sapiens, UniProt P08912); test: Human M5 calcium mobilization FLIPR assay; assay type: cell-based; conditions: CHO cells expressing hM5, Ca2+ release
T1 construct: expressed in transfected cells; host or cells: CHO cells (Chinese hamster ovary cells, ATCC)
T1 sequence (P08912 1-532): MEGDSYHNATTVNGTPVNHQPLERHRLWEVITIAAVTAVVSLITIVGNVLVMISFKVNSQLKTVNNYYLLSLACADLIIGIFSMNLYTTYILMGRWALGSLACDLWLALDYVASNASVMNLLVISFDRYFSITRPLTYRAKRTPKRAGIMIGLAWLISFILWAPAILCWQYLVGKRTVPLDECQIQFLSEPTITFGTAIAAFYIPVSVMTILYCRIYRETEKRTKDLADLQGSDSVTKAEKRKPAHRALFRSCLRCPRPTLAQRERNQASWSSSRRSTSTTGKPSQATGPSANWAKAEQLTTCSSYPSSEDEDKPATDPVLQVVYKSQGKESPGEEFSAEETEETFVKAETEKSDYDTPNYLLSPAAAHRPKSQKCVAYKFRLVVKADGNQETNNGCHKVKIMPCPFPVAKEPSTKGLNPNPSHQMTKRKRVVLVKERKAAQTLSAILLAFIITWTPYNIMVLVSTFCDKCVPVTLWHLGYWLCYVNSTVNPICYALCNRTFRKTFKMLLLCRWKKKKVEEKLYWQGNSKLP
Experimental: (§1) Biological Evaluation Human M1, Rat M1, Human M3 and Human M5 Calcium Mobilization FLIPR™ Assay
(§2) The compound activity in the present invention (EC50 or IC50) was measured using a 384 plate-based imaging assay that monitors drug induced intracellular Ca^2+ release in whole cells. Activation of hM1 (human Muscarinic receptor subtype 1, gene bank access NM_000738), rM1 (rat Muscarinic receptor subtype 1, gene bank access NM_080773), hM3 (human Muscarinic receptor subtype 3, gene bank access NM_000740NM_000740) and hM5 (human Muscarinic receptor subtype 5, gene bank access NM_0121258), receptors expressed in CHO cells (Chinese hamster ovary cells, ATCC) was quantified in a Molecular Devices FLIPR II™ instrument as an increase in fluorescent signal. Inhibition of hM3 and hM5 by compounds was determined by the decrease in fluorescent signal in response to 20 nM carbachol activation.
(§3) CHO cells were plated in 384-black polylysine coated plate (Costar) at 8000 cells/well/50 μl for 24 hours or 4000 cells/well for 48 hours in a humidified incubator (5% CO2 and 37° C.) in DMEM/F12 medium without selection agent. Prior to the experiment the cell culture medium was removed from the plates by inversion. A loading solution of 30 μl of Hank's balanced salt solution, 10 mM Hepes and 2.5 mM Probenicid at Ph 7.4 (Cat no. 311-520-VL, Wisent) with 2 μM calcium indicator dye (FLUO-3AM, Molecular Probes F14202) was added to each well. Plates were incubated at 37° C. for 60 minutes prior to start the experiment. The incubation was terminated by washing the cells four times in assay buffer, leaving a residual 25 μl buffer per well. Cell plates were then transferred to the FLIPR, ready for compound additions.
(§4) The day of experiment, carbachol and compounds were diluted in three-fold concentration range (10 points serial dilution) for addition by FLIPR instrument. For all calcium assays, a baseline reading was taken for 30 seconds followed by the addition of 12.5 μl (25 μl for hM1 and rM1) of compounds, resulting in a total well volume of 37.5 μl (50 μl for hM1 and rM1). Data were collected every 1.6 seconds for 300 seconds. For hM3 and hM5 an additional 12.5 μl of carbachol (20 nM final) was added at 300 seconds. After this addition of carbachol (producing a final volume of 50 μl), the FLIPR continued to collect data every 2 seconds for 240 seconds. The fluorescence emission was read using filter 1 (emission 520-545 nm) by the FLIPR on board CCD camera.
(§5) Calcium mobilization output data were calculated as the maximal relative fluorescence unit (RFU) minus the minal value for both compound and agonist reading frame (except for hM1 and rM1 using only the maximal RFU). Data were analyzed using sigmoidal fits of a non-linear curve-fitting program (XLfit version 5.0.6 from ID Business Solutions Limited, Guildford, UK). All EC50 and IC50 values are reported as arithmetic means±standard error of mean of ‘n’ independent experiments.

[2] = target: T2, hM3 (human Muscarinic receptor subtype 3) (Homo sapiens, UniProt P20309); test: Human M3 calcium mobilization FLIPR assay; assay type: cell-based; conditions: CHO cells expressing hM3, Ca2+ release
T2 construct: expressed in transfected cells; host or cells: CHO cells (Chinese hamster ovary cells, ATCC)
Experimental: as §1, §2, §3, §4, §5

T2 sequence (P20309 whole entry): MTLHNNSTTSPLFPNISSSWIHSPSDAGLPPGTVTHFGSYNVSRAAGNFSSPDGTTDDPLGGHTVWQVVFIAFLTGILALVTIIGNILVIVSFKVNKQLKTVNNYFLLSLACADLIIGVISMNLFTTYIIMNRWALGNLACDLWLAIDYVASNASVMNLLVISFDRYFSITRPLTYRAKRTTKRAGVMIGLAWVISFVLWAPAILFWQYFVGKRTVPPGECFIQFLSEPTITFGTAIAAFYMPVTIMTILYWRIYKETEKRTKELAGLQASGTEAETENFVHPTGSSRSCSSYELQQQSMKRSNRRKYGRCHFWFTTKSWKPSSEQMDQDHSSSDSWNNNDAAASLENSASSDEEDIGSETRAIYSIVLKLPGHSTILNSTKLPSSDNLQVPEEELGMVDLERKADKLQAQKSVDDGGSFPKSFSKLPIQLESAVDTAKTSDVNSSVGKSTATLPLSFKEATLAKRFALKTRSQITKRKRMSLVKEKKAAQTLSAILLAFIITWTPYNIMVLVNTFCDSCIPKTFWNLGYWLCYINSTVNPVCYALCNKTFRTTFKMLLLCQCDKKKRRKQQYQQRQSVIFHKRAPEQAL

| EC50 [1] | EC50 [2] | Compound |
| --- | --- | --- |
| 0.22 µM | 2.5 µM | CCOC(=O)N1CCC(N2CCC(N3C(=O)N[C@H]4CCCC[C@@H]43)CC2)CC1 |
| 3.9 µM | > 40 µM | CCOC(=O)N1CC[C@H](N2CCC(N3C(=O)N[C@H]4CCCC[C@@H]43)CC2)C1 |
| > 40 µM | > 40 µM | COc1ccccc1C(=O)N1CCC(N2CCC(N3C(=O)N[C@@H]4CCCC[C@H]43)CC2)CC1 |
| 0.036 µM | > 40 µM | CC(C)OC(=O)N1CCC(N2CCC(N3C(=O)N[C@H]4CCCC[C@@H]43)CC2)CC1 |
| 0.072 µM | > 40 µM | CC(C)OC(=O)N1CCC(N2CCC(N3C(=O)N[C@@H]4CCCC[C@@H]43)CC2)CC1 |
| 1.6 µM | > 40 µM | O=C1CCCN1CCC(=O)N1CCC(N2CCC(N3C(=O)N[C@H]4CCCC[C@@H]43)CC2)CC1 |
| > 40 µM | > 40 µM | O=C(C1CC1)N1CCC(N2CCC(N3C(=O)N[C@@H]4CCCC[C@H]43)CC2)CC1 |
| 2.4 µM | 5.4 µM | O=C1CCCN1CCC(=O)N1CCC(N2CCC(N3C(=O)N[C@@H]4CCCC[C@H]43)CC2)CC1 |
| > 40 µM | > 40 µM | O=C(C1CCCC1)N1CCC(N2CCC(N3C(=O)N[C@H]4CCCC[C@@H]43)CC2)CC1 |
| > 40 µM | > 40 µM | CN1C(=O)N(C2CCN(C3CCN(C(=O)C4CC4)CC3)CC2)[C@H]2CCCC[C@@H]21 |
| > 40 µM | > 40 µM | CC(C)OC(=O)N1CCC(N2CCC(N3C(=O)C[C@H]4CCCC[C@@H]43)CC2)CC1 |
